From article PMC4834666 (ACS Medicinal Chemistry Letters, 2016)

Columns and labels:
[1] = Human hepatocyte stability; type: in vitro ADME; settings: human hepatocytes
[2] = human liver microsomes
[3] = tested on: U87 MG/M human glioblastoma xenografts; settings: each dose, for the duration of the xenograft study

SMILES	HH Clhep [1] [mL/min/kg]	HLM Clhep [2] [mL/min/kg]	tolerability [3]
CC1(C)OCCn2c1nc1c(N3CCOCC3)nc(-c3cnc(N)nc3)nc12 [Compound 16, GDC-0084]	1.0	5.0	well tolerated
COC(C)(C)c1cc2nc(-c3cnc(N)nc3)nc(N3CCOCC3)c2s1 [Compound 1, reference compound]		10.4	
Cc1nc(N)ncc1-c1nc(N2CCOCC2)c2nc(C(C)(C)O)n(CCO)c2n1 [Compound 4]		2.8	
COC1(c2sc3c(N4CCOCC4)nc(-c4cnc(N)nc4)nc3c2C)COC1 [Compound 2, reference compound]		9.8	
Cc1nc(N)ncc1-c1nc(N2CCOCC2)c2nc3n(c2n1)CCOC3(C)C [Compound 15]	1.2	3.1	
